Laboratory results as given in patent publication US20250197437A1, “CANNABINOID COMPLEXES WITH IMPROVED PROPERTIES” (KEMIJSKI INŠTITUT, priority 2022, published 2025).
Where two headings read alike, the source gives them in different places.

Experiment: Water solubility test of cannabinoid:glucosamine complexes and pure cannabinoids (HPLC of supernatant)
Type: physicochemical
Details: thermodynamic from solid
Procedure: If considered necessary, sonication can also be applied. Afterwards, the solution is centrifuged at 3.000 g for 3 minutes and the supernatant is transferred to a HPLC vial. Concentration of dissolved cannabinoids is determined by analysis on an Agilent 1260 Infinity (Santa Clara, CA, USA) HPLC system. The chromatographic method is adapted from the literature (Križman, 2019). In short, the separation is performed on a Phenomenex (Torrance, CA, USA) Luna C18 (2) (octadecyl silica) chromatographic column, with dimensions 150 mm×3 mm i.d., 3 μm particle size, and temperature set at 37° C. Mobile phase is isocratic consisting of water/acetonitrile with a ratio of 9:31 (v/v), with 0.1% formic acid (v/v) and 10 mM ammonium formate, at a flow rate of 0.8 mL/min and injection volume 5 μL. The UV detection wavelength is 275 nm. The concentration of cannabinoids is determined using an external standard method.
For water solubility studies, 1-1.5 mg of the prepared complex was mixed with 1 mL of distilled water and stirred for 5-10 min, if necessary also sonication was applied. Afterwards the solution was centrifuged at 3.000 g for 3 minutes and the supernatant was transferred to the vials. Concentration of dissolved cannabinoids was determined by HPLC-DAD system (Agilent 1260 Infinity, Santa Clara, CA, USA).

[1] = 1-1.5 mg sample in 1 mL distilled water, stirred 5-10 min, centrifuged, HPLC, printed as greater-than/less-than bounds, read-out: Water solubility of cannabinoid

Row | SMILES | solubility [1] [µg/mL] | solubility (water) [µg/mL]
1 | C=C(C)[C@@H]1CCC(C)=C[C@H]1c1c(O)cc(CCCCC)c(C(=O)O)c1O [CBDA, cannabidiolic acid] | < 2 | –
2 | C=C(C)[C@@H]1CCC(C)=C[C@H]1c1c(O)cc(CCCCC)cc1O [CBD, cannabidiol] | < 1 | –
3 | CCCCCc1cc(O)c(C/C=C(\C)CCC=C(C)C)c(O)c1 [CBG, cannabigerol] | – | < 1
